49 substances from the OligoGym collection can be followed below.

Oligonucleotides are written 5' to 3', each unit as a sugar letter and its base; * is a phosphorothioate linkage, no mark a phosphodiester; rarer units and linkages stand in square brackets, end groups in braces. Plain capitals give the bases only. d = 2'-deoxy (DNA); r = 2'-OH (RNA)
Further: test concentration or dose not given here.

The target of the first data set is UBE2C. As to the kind of experiment: reporter assay of Huesken 2005. The conditions noted are these: siRNA. Background: A reporter such as luciferase makes a cellular process visible.
Take “sense rUrCrUrArGrGrArGrArArCrCrCrArArCrArUrUdTdT / antisense rArArUrGrUrUrGrGrGrUrUrCrUrCrCrUrArGrAdAdG”: the normalised inhibition (eCFP-eYFP dual reporter) was found to be 88.8%.
On to “sense rCrCrUrGrUrArUrGrArUrGrUrCrArGrGrArCrCdTdT / antisense rGrGrUrCrCrUrGrArCrArUrCrArUrArCrArGrGdGdC”, for which the normalised inhibition (eCFP-eYFP dual reporter) was found to be 42%.
Same read-out and setting: the same measure for “sense rGrCrCrUrUrCrUrArGrGrArGrArArCrCrCrArAdTdT / antisense rUrUrGrGrGrUrUrCrUrCrCrUrArGrArArGrGrCdTdC”: 92.8%; for “sense rArCrArArUrGrCrGrCrCrCrArCrArGrUrGrArAdTdT / antisense rUrUrCrArCrUrGrUrGrGrGrCrGrCrArUrUrGrUdAdA”: 93.7%.

Another data set concerns the target UBE2M. As to the kind of experiment: reporter assay of Huesken 2005. The conditions noted are these: siRNA.
As for “sense rArGrCrUrGrArArCrCrUrGrCrCrCrArArGrArCdTdT / antisense rGrUrCrUrUrGrGrGrCrArGrGrUrUrCrArGrCrUdCdG”, the normalised inhibition (eCFP-eYFP dual reporter) is 71.8%.
Same read-out and setting: the same measure for “sense rGrGrUrCrUrArUrCrArCrCrCrCrArArCrArUrUdTdT / antisense rArArUrGrUrUrGrGrGrGrUrGrArUrArGrArCrCdAdT”: 79.7%; for “sense rGrArCrArArUrGrGrUrCrUrArUrCrArCrCrCrCdTdT / antisense rGrGrGrGrUrGrArUrArGrArCrCrArUrUrGrUrCdTdC”: 61.8%.
On the same count and under the same terms, next, “sense rUrArArGrGrUrGrGrGrCrCrArGrGrGrUrUrArCdTdT / antisense rGrUrArArCrCrCrUrGrGrCrCrCrArCrCrUrUrAdAdA”: 69.9%; “sense rCrArUrGrCrGrGrGrGrUrGrGrCrUrArCrArUrCdTdT / antisense rGrArUrGrUrArGrCrCrArCrCrCrCrGrCrArUrGdGdA”: 67.7%; “sense rCrGrGrCrGrGrCrGrCrArGrCrUrGrCrGrGrArUdTdT / antisense rArUrCrCrGrCrArGrCrUrGrCrGrCrCrGrCrCrGdAdC”: 69.9%.
Still for that read-out and setting: the same measure for “sense rGrUrCrCrUrGrArUrGrArGrGrGrCrUrUrCrUrAdTdT / antisense rUrArGrArArGrCrCrCrUrCrArUrCrArGrGrArCdAdG”: 80.3%.
On to “sense rGrArUrGrArGrGrGrCrUrUrCrUrArCrArArGrAdTdT / antisense rUrCrUrUrGrUrArGrArArGrCrCrCrUrCrArUrCdAdG”, for which the normalised inhibition (eCFP-eYFP dual reporter) came to 82.7%.
Still for that read-out and setting: the same measure for “sense rArCrGrArGrCrUrGrArArCrCrUrGrCrCrCrArAdTdT / antisense rUrUrGrGrGrCrArGrGrUrUrCrArGrCrUrCrGrUdTdT”: 66%; for “sense rUrCrUrCrUrUrCrUrUrGrGrArGrCrCrCrArArCdTdT / antisense rGrUrUrGrGrGrCrUrCrCrArArGrArArGrArGrAdTdA”: 69.7%.
Turning to “sense rCrArCrCrCrCrArArCrArUrUrGrArCrCrUrCrGdTdT / antisense rCrGrArGrGrUrCrArArUrGrUrUrGrGrGrGrUrGdAdT”, the normalised inhibition (eCFP-eYFP dual reporter) worked out at 62.5%.
As to “sense rUrCrArCrCrCrCrArArCrArUrUrGrArCrCrUrCdTdT / antisense rGrArGrGrUrCrArArUrGrUrUrGrGrGrGrUrGrAdTdA”, the normalised inhibition (eCFP-eYFP dual reporter) amounted to 65.4%.
“sense rArGrUrCrGrGrCrGrGrGrCrGrGrCrArCrCrArAdTdT / antisense rUrUrGrGrUrGrCrCrGrCrCrCrGrCrCrGrArCrUdCdC” yielded a normalised inhibition (eCFP-eYFP dual reporter) of 73.6%.
Substance “sense rGrGrCrCrArGrGrGrUrUrArCrCrCrGrCrArUrGdTdT / antisense rCrArUrGrCrGrGrGrUrArArCrCrCrUrGrGrCrCdCdA” had a normalised inhibition (eCFP-eYFP dual reporter) of 73.8%.
Still for that read-out and setting: next, “sense rArGrUrGrUrGrArGrArCrArArUrGrGrUrCrUrAdTdT / antisense rUrArGrArCrCrArUrUrGrUrCrUrCrArCrArCrUdTdC”: 92.1%; “sense rUrGrCrArGrArArCrArArCrCrGrGrCrGrGrCrUdTdT / antisense rArGrCrCrGrCrCrGrGrUrUrGrUrUrCrUrGrCrAdGdG”: 67.6%.
As to “sense rArGrCrArGrCrArArGrArArGrGrCrGrUrCrGrGdTdT / antisense rCrCrGrArCrGrCrCrUrUrCrUrUrGrCrUrGrCrUdGdC”, the normalised inhibition (eCFP-eYFP dual reporter) was 53%.
On the same count and under the same terms, next, “sense rGrGrGrCrArGrCrArGrCrArArGrArArGrGrCrGdTdT / antisense rCrGrCrCrUrUrCrUrUrGrCrUrGrCrUrGrCrCrCdTdT”: 58.9%; “sense rArGrUrCrCrUrUrArCrGrArUrArArArCrUrCrCdTdT / antisense rGrGrArGrUrUrUrArUrCrGrUrArArGrGrArCrUdGdG”: 60.6%; “sense rGrGrCrCrUrGrCrArGrUrArUrCrUrCrUrUrCrUdTdT / antisense rArGrArArGrArGrArUrArCrUrGrCrArGrGrCrCdAdT”: 80.2%.
Substance “sense rCrCrGrCrArGrArGrGrUrCrCrUrGrCrArGrArAdTdT / antisense rUrUrCrUrGrCrArGrGrArCrCrUrCrUrGrCrGrGdCdC” showed a normalised inhibition (eCFP-eYFP dual reporter) of 67.1%.
In the case of “sense rUrUrCrUrArCrArArGrArGrUrGrGrGrArArGrUdTdT / antisense rArCrUrUrCrCrCrArCrUrCrUrUrGrUrArGrArAdGdC”, the normalised inhibition (eCFP-eYFP dual reporter) is 68.9%.
The same measure, in the same setting: the same measure for “sense rCrUrUrGrGrArGrCrCrCrArArCrCrCrCrGrArGdTdT / antisense rCrUrCrGrGrGrGrUrUrGrGrGrCrUrCrCrArArGdAdA”: 64.5%; for “sense rGrUrCrCrUrUrArCrGrArUrArArArCrUrCrCrAdTdT / antisense rUrGrGrArGrUrUrUrArUrCrGrUrArArGrGrArCdTdG”: 76.7%.
Still for that read-out and setting: next, “sense rArCrGrUrCrUrGrCrCrUrCrArArCrArUrCrCrUdTdT / antisense rArGrGrArUrGrUrUrGrArGrGrCrArGrArCrGrUdTdG”: 80.4%; “sense rGrCrArGrArGrGrUrCrCrUrGrCrArGrArArCrAdTdT / antisense rUrGrUrUrCrUrGrCrArGrGrArCrCrUrCrUrGrCdGdG”: 69.9%; “sense rGrGrGrCrGrGrCrArCrCrArArGrGrGrCrArGrCdTdT / antisense rGrCrUrGrCrCrCrUrUrGrGrUrGrCrCrGrCrCrCdGdC”: 64.9%.
Same read-out and setting: the same measure for “sense rCrUrUrCrUrCrArGrArUrCrCrArGrArCrGrArCdTdT / antisense rGrUrCrGrUrCrUrGrGrArUrCrUrGrArGrArArGdCdT”: 65.6%; for “sense rArArCrGrUrGrCrArGrCrGrCrUrCrCrArUrGrCdTdT / antisense rGrCrArUrGrGrArGrCrGrCrUrGrCrArCrGrUrUdCdT”: 61.2%; for “sense rUrGrArArCrArArGrGrArGrGrCrCrGrCrArGrAdTdT / antisense rUrCrUrGrCrGrGrCrCrUrCrCrUrUrGrUrUrCrAdGdT”: 65.9%.
The substance “sense rArUrGrGrUrCrUrArUrCrArCrCrCrCrArArCrAdTdT / antisense rUrGrUrUrGrGrGrGrUrGrArUrArGrArCrCrArUdTdG” yielded a normalised inhibition (eCFP-eYFP dual reporter) of 71.3%.
Same read-out and setting: next, “sense rGrUrGrGrGrCrCrArGrGrGrUrUrArCrCrCrGrCdTdT / antisense rGrCrGrGrGrUrArArCrCrCrUrGrGrCrCrCrArCdCdT”: 56.4%; “sense rArGrGrArCrUrGrGrArArGrCrCrArGrUrCrCrUdTdT / antisense rArGrGrArCrUrGrGrCrUrUrCrCrArGrUrCrCrUdCdT”: 54.1%.
Still for that read-out and setting: next, “sense rCrUrGrGrUrCrArUrCrUrGrUrCrCrUrGrArUrGdTdT / antisense rCrArUrCrArGrGrArCrArGrArUrGrArCrCrArGdCdT”: 76.7%; “sense rCrArArCrCrCrCrGrArGrGrArCrCrCrArCrUrGdTdT / antisense rCrArGrUrGrGrGrUrCrCrUrCrGrGrGrGrUrUrGdGdG”: 62.8%.
In turn, “sense rUrUrUrGrUrGrUrUrCrArGrUrUrUrUrArArGrGdTdT / antisense rCrCrUrUrArArArArCrUrGrArArCrArCrArArAdCdT” registered a normalised inhibition (eCFP-eYFP dual reporter) of 51.1%.
Still for that read-out and setting: next, “sense rGrArGrUrCrGrGrCrGrGrGrCrGrGrCrArCrCrAdTdT / antisense rUrGrGrUrGrCrCrGrCrCrCrGrCrCrGrArCrUrCdCdT”: 53%; “sense rArGrArArGrArArGrGrArGrGrArGrGrArGrUrCdTdT / antisense rGrArCrUrCrCrUrCrCrUrCrCrUrUrCrUrUrCrUdGdC”: 59.4%; “sense rGrGrCrCrGrCrArGrArGrGrUrCrCrUrGrCrArGdTdT / antisense rCrUrGrCrArGrGrArCrCrUrCrUrGrCrGrGrCrCdTdC”: 66.4%.
Still for that read-out and setting: the same measure for “sense rGrUrGrArUrArUrCrArGrCrUrUrCrUrCrArGrAdTdT / antisense rUrCrUrGrArGrArArGrCrUrGrArUrArUrCrArCdAdC”: 70.3%; for “sense rArGrGrGrCrArArCrGrUrCrUrGrCrCrUrCrArAdTdT / antisense rUrUrGrArGrGrCrArGrArCrGrUrUrGrCrCrCrUdCdG”: 79.5%; for “sense rGrCrCrArGrUrCrCrUrUrArCrGrArUrArArArCdTdT / antisense rGrUrUrUrArUrCrGrUrArArGrGrArCrUrGrGrCdTdT”: 68.5%.
On the same count and under the same terms, the same measure for “sense rCrUrUrCrArArGrCrUrGrGrUrCrArUrCrUrGrUdTdT / antisense rArCrArGrArUrGrArCrCrArGrCrUrUrGrArArGdTdT”: 77%.
“sense rGrUrUrCrArGrUrUrUrUrArArGrGrUrGrGrGrCdTdT / antisense rGrCrCrCrArCrCrUrUrArArArArCrUrGrArArCdAdC” gave a normalised inhibition (eCFP-eYFP dual reporter) of 53.9%.
The substance “sense rCrArGrCrUrUrCrUrCrArGrArUrCrCrArGrArCdTdT / antisense rGrUrCrUrGrGrArUrCrUrGrArGrArArGrCrUrGdAdT” returned a normalised inhibition (eCFP-eYFP dual reporter) of 79.3%.
